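Interpolation was linear, between the two tested concentrations surrounding the appropriate level; five concentrations were tested over 48 hours in 96-well plates. GI50 = concentration required for 50% inhibition of growth.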 The source made the active and inactive calls. Rule as the data show it: active = GI50 up to about 1.1 µM and inactive = higher.
Key:
Test in all cases: growth of human tumour cells (NCI), 48 h
HCT-15 = tested on: HCT-15
NCI-H226 = tested on: NCI-H226
HCC 2998 = tested on: HCC 2998
M14 = tested on: M14
KM12 = tested on: KM12
SN12C = tested on: SN12C
UO-31 = tested on: UO-31
IGROV-1 = tested on: IGROV-1
OVCAR-4 = tested on: OVCAR-4
T47D = tested on: T47D
COLO 205 = tested on: COLO 205
CAKI-1 = tested on: CAKI-1
MDA-N = tested on: MDA-N
U-251 = tested on: U-251
K562 = tested on: K562
NCI/ADR-RES = tested on: NCI/ADR-RES
SF-295 = tested on: SF-295
SNB-19 = tested on: SNB-19
SF-268 = tested on: SF-268
786-0 = tested on: 786-0

Measured: GI50

CCCCCCCCCCCCCCCCCCNc1ccn(C2OC(COP(=O)(O)OCC3OC(n4cc(F)c(NCCCCCCCCCCCCCCCCCC)nc4=O)CC3O)C(O)C2O)c(=O)n1 (stereo not given)
> 100 µM: HCT-15
inactive: NCI-H226 > 100 µM | HCC 2998 63.5 µM | M14 > 100 µM | KM12 > 100 µM | SN12C > 100 µM | UO-31 > 100 µM | IGROV-1 > 100 µM | OVCAR-4 > 100 µM | T47D > 100 µM | COLO 205 > 100 µM | CAKI-1 > 100 µM | MDA-N > 100 µM | U-251 67 µM | K562 > 100 µM | NCI/ADR-RES > 100 µM | SF-295 > 100 µM | SNB-19 66.8 µM | SF-268 > 100 µM | 786-0 > 100 µM

Cc1nnc2sc(-c3ccc(-c4ccccc4Cl)o3)nn12
inactive: NCI-H226 20.8 µM | HCC 2998 21.8 µM | M14 32 µM | KM12 35.2 µM | SN12C 35.4 µM | UO-31 33.7 µM | IGROV-1 40.6 µM | OVCAR-4 31.8 µM | T47D 20.9 µM | COLO 205 38.5 µM | CAKI-1 56 µM | MDA-N 17.9 µM | U-251 32.5 µM | K562 21.2 µM | NCI/ADR-RES 21.9 µM | SF-295 32.1 µM | SNB-19 40.5 µM | SF-268 33.9 µM | 786-0 26.9 µM
24.9 µM: HCT-15

Cc1ccc(N2C(=O)C3c4[nH]c5ccccc5c4C4CCC(C(C)(C)C)CC4C3C2=O)cc1 (stereo not given)
34.6 µM: HCT-15
inactive: NCI-H226 17.4 µM | HCC 2998 14.8 µM | M14 13.6 µM | KM12 17.5 µM | SN12C 10.3 µM | UO-31 14.9 µM | IGROV-1 11.4 µM | OVCAR-4 7.21 µM | T47D 15.6 µM | COLO 205 8.95 µM | CAKI-1 10.2 µM | MDA-N 16.8 µM | U-251 4.49 µM | K562 5.51 µM | NCI/ADR-RES 12.8 µM | SF-295 8.15 µM | SNB-19 8.75 µM | SF-268 6.78 µM | 786-0 5.06 µM

COc1ccc2c(c1)[nH]c1c3ccc(OC)cc3oc(=O)c21
inactive: NCI-H226 > 100 µM | HCC 2998 > 100 µM | M14 > 100 µM | KM12 19.8 µM | SN12C > 100 µM | UO-31 > 100 µM | IGROV-1 > 100 µM | OVCAR-4 > 100 µM | T47D > 100 µM | COLO 205 > 100 µM | CAKI-1 > 100 µM | U-251 > 100 µM | K562 > 100 µM | NCI/ADR-RES > 100 µM | SF-295 > 100 µM | SNB-19 > 100 µM | SF-268 > 100 µM
5.27 µM: HCT-15
active: MDA-N 0.9 µM | 786-0 0.432 µM

O=C1CC2CC(CC3(CO3)C2)C1F (stereo not given)
inactive: NCI-H226 > 100 µM | HCC 2998 > 100 µM | M14 > 100 µM | KM12 > 100 µM | SN12C > 100 µM | UO-31 > 100 µM | IGROV-1 > 100 µM | OVCAR-4 > 100 µM | T47D > 100 µM | COLO 205 > 100 µM | CAKI-1 > 100 µM | MDA-N > 100 µM | U-251 > 100 µM | K562 > 100 µM | NCI/ADR-RES > 100 µM | SF-295 > 100 µM | SNB-19 > 100 µM | SF-268 > 100 µM | 786-0 > 100 µM
> 100 µM: HCT-15

O=C1c2ccccc2C(=O)c2c(NC(=O)c3ccc4c5c(ncnc35)-c3ccccc3C4=O)cccc21
> 100 µM: HCT-15
inactive: NCI-H226 > 100 µM | HCC 2998 > 100 µM | M14 > 100 µM | KM12 > 100 µM | SN12C > 100 µM | UO-31 > 100 µM | IGROV-1 > 100 µM | OVCAR-4 > 100 µM | T47D > 100 µM | COLO 205 > 100 µM | CAKI-1 > 100 µM | MDA-N > 100 µM | U-251 31 µM | K562 > 100 µM | NCI/ADR-RES > 100 µM | SF-295 23.4 µM | SNB-19 33.9 µM | SF-268 97.5 µM | 786-0 25.1 µM

O=C(O)c1cc2c(cc1S(=O)(=O)O)C1C(C3C2C2(Cl)C(Cl)=C(Cl)C3(Cl)C2(Cl)Cl)C2(Cl)C(Cl)=C(Cl)C1(Cl)C2(Cl)Cl (stereo not given)
inactive: NCI-H226 23.4 µM | HCC 2998 20.8 µM | M14 37.3 µM | KM12 51.4 µM | SN12C 8.71 µM | UO-31 44.6 µM | IGROV-1 50.4 µM | OVCAR-4 38.7 µM | T47D 33.2 µM | COLO 205 44.1 µM | CAKI-1 > 100 µM | MDA-N 31.4 µM | U-251 38.3 µM | K562 34.3 µM | NCI/ADR-RES > 100 µM | SF-295 23.2 µM | SNB-19 47.4 µM | SF-268 58.7 µM | 786-0 39.8 µM
45 µM: HCT-15

— ChEMBL document CHEMBL1201862, “PubChem BioAssay data set” (2004)
